Test results from publication PMC7238188, “Recombinant Peptide Production Platform Coupled with Site-Specific Albumin Conjugation Enables a Convenient Production of Long-Acting Therapeutic Peptide” (Pharmaceutics, 2020).

What was measured:
[1] = molecular target: human GLP-1 receptor (GLP-1R) overexpressed on HEK-293 cells (human) (UniProt P43220)
[2] = system: C57BL/6J mice; assay: In vivo intraperitoneal glucose tolerance test (IPGTT); settings: C57BL/6J male mice, 100 nmol/kg subcutaneous 1 h before glucose 1.5 g/kg i.p., 0-120 min, n = 6
Description: We performed in vivo intraperitoneal glucose tolerance tests (IPGTTs) on seven-week-old male C57BL/6J mice, which we purchased from DBL. The mice were randomly divided into five groups (n = 6). The IPGTTs were performed after glucose (1.5 g/kg dose) had been intraperitoneally administered to C57BL/6J male mice that had been fasted for 3 h. We obtained blood samples from the tail of each mouse at the predetermined time using an Accu-Check Guide (Roche Diabetes Care, Indianapolis, IN, USA).

[3] = K34R mutant; cited from earlier work

human GLP-1 receptor (GLP-1R) overexpressed on HEK-293 cells (human), sequence (P43220 24-463): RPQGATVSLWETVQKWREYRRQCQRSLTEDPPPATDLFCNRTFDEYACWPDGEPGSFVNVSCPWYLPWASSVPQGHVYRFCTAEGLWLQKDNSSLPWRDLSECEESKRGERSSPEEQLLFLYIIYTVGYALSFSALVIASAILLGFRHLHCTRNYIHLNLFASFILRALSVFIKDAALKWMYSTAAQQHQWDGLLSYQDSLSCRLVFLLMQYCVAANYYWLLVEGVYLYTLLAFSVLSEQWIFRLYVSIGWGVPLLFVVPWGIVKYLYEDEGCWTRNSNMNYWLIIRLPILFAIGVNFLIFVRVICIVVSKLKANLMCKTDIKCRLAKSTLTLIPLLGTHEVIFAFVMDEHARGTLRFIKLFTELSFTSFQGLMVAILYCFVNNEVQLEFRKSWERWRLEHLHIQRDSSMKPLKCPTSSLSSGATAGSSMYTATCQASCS

Row | Molecule | EC50 of cAMP production in HEK-293 cells overexpressing GLP-1R [1] [µM] | blood glucose profile / blood glucose levels in IPGTT [2] | biological activity compared with wild-type GLP-1 [3]
1 | GLP1_16HSA (GLP-1 variant conjugated to human serum albumin at position 16) (from UniProt P02768 25-609) | 0.7 |  | 
2 | CC[C@H](C)[C@H](NC(=O)[C@H](Cc1ccccc1)NC(=O)[C@H](CCC(=O)O)NC(=O)[C@H](CCCCN)NC(=O)[C@H](C)NC(=O)[C@H](C)NC(=O)[C@H](CCC(N)=O)NC(=O)CNC(=O)[C@H](CCC(=O)O)NC(=O)[C@H](CC(C)C)NC(=O)[C@H](Cc1ccc(O)cc1)NC(=O)[C@H](CO)NC(=O)[C@H](CO)NC(=O)[C@@H](NC(=O)[C@H](CC(=O)O)NC(=O)[C@H](CO)NC(=O)[C@@H](NC(=O)[C@H](Cc1ccccc1)NC(=O)[C@@H](NC(=O)CNC(=O)[C@H](CCC(=O)O)NC(=O)[C@H](C)NC(=O)[C@@H](N)Cc1c[nH]cn1)[C@@H](C)O)[C@@H](C)O)C(C)C)C(=O)N[C@@H](C)C(=O)N[C@@H](Cc1c[nH]c2ccccc12)C(=O)N[C@@H](CC(C)C)C(=O)N[C@H](C(=O)N[C@@H](CCCNC(=N)N)C(=O)NCC(=O)N[C@@H](CCCNC(=N)N)C(=O)NCC(=O)O)C(C)C [GLP1_C] |  | very similar to that of the negative control group | comparable biological activity to that of wild-type GLP-1
